This note sets out measurements from patent US20160081912A1, “COMPOSITIONS FOR IMPROVING THE HAIR, SKIN, AND NAILS” (FYBRANDS CORP., priority 2013, published 2016).

The series in a line: Solubility of cycloastragalus in water, acetone and oil carriers. It counts as physicochemical. The source says:
In certain embodiments, the disclosure provides compositions to deliver the active ingredient to the root bulb of the hair follicle. Cycloastragalus is not soluble in water. Creating a cream formulation could possibly lead to clogging of pores at the site of the hair follicle, which could negatively affect restoration of the follicle. In certain aspects, the present disclosure relates to delivery of cycloastragalus using oil-based formulations. Oil is absorbed into the stratum corneum and deeper layers of the skin where the root bulb cells are located.
Initial attempts at determining an appropriate oil carrier were done using either or in combination together C10-30 Cholesterol and Lanosterol esters.
Further attempts were then made in to dissolve the cycloastragalus in oil carrier.
Cycloastragalus is soluble in acetone. We evaluated the possibility that cycloastragalus could be first dissolved in acetone and then put into solution with an oil carrier. Since acetone evaporates to completion out of any open system, it could be removed leaving the cycloastragalus in solution. One should keep in mind that acetone is incredibly flammable, and methods for removing acetone should be chosen carefully.

Take `CC(C)(O)[C@@H]1CC[C@](C)([C@H]2[C@@H](O)C[C@@]3(C)[C@@H]4C[C@H](O)[C@H]5C(C)(C)[C@@H](O)CC[C@@]56C[C@@]46CC[C@]23C)O1` [Cycloastragalus, cycloastragenol]: the solubility in water entry was “not soluble”. Also, where the note is “acetone”, the solubility in acetone entry is on record as “soluble”. In addition, the “dissolving in oil carrier” value (oil carrier, direct dissolution without acetone) was “limited success”. Further, the solubility in water result (listed as cycloastragalus) is reported as “very limited results”.
